Measurements as given in patent US11312940B2, “Progenitor cells and methods for preparing and using the same” (University of Louisville Research Foundation, Inc., priority 2015, dated 2022).

B1: prolactin (protein, UniProt P01236 29-227, looked up)
Prolactin: LPICPGGAARCQVTLRDLFDRAVVLSHYIHNLSSEMFSEFDKRYTHGRGFITKAINSCHTSSLATPEDKEQAQQMNQKDFLSLIVSILRSWNEPLYHLVTEVRGMQEAPEAILSKAVEIEEQTKRLLEGMELIVSQVHPETKENEIYPVWSGLPSLQMADEESRLSAYYNLLHCLRRDSHKIDNYLKLLKCRIIHNNNC
notes: pituitary sex hormone, purchased from ProSpec

Assays:
BM VSELs = experiment: Total number of BM VSELs by FACS after SexH administration; assay type: in vivo, mouse; conditions: 10-day administration; for increase in total number of VSELs/10^6 BMMNCs: male BM; for increase in total number of VSELs/10^6 BMMNCs (ranking): female mice
Protocol: (§1) Hormone treatment was performed for 10 days.
(§2) All mAbs were added at saturating concentrations, and the cells were incubated for 30 minutes on ice, washed twice, and then resuspended for sorting in cell-sorting medium containing 1× Hank's Balanced Salt Solution without phenol red (GIBCO™, a division of Thermo Fisher Scientific Inc., Waltham, Mass.), 2% heat-inactivated fetal calf serum (GIBCO™), 10 mM HEPES buffer (GIBCO™), and 30 U/mL gentamicin (GIBCO™) at a concentration of 5×10^6 cells/mL. Sca-1^+/Lin^−/CD45^− cells (VSELs) and Sca-1^+/Lin^−/CD45^+ cells (HSCs) were isolated according to the gating and sorting strategy described in Zuba-Surma & Ratajczak, 2010 and Suszynska et al, 2014b. Proliferation events in BM-derived VSEL and HSC populations were examined by BrdU incorporation followed by flow cytometry.

[1] = system: Sca-1+/Lin-/CD45- cells (VSELs); experiment: In vivo BrdU incorporation into BM VSELs; set-up: species or system mouse; conditions: for BrdU incorporation response of Sca-1+/Lin-/CD45- cells (ranking): 10-day administration
Protocol: as §1, §2
(§3) Adult C57BL/6 mice (4-8 weeks old; Jackson Laboratory) were intraperitoneally (i.p.) were injected daily with 1 mg of BrdU solution to evaluate whether SexHs affect proliferation of stem cells, and the final injection of BrdU was performed 1 hour before sacrificing the animals (see Grymula et al, 2014). […] Samples were analyzed with a Navios flow cytometer (Beckman Coulter).

[2] = system: Sca-1+/Lin-/CD45+ cells (HSPCs); experiment: In vivo BrdU incorporation into BM HSPCs; set-up: species or system mouse
Protocol: as §1, §2, §3

[3] = system: sublethally irradiated mice; experiment: Recovery of PB counts in sublethally irradiated mice; assay type: in vivo, mouse; conditions: 650 cGy, injections for 10 days
Protocol: Fifty microliters of PB was taken from the retro-orbital plexus of the mice and collected into microvette EDTA-coated tubes (Sarstedt AG & Co., Nümbrecht, Germany). Samples were run within 2 hours of collection on a HEMAVET® 950 hematology analyzer (Drew Scientific Inc., Oxford, Conn.) as described in Borkowska et al., 2014.
Blood was collected on days 0, 3, 7, 14, 21, and 28, and white blood cell (WBC), platelet, red blood cells (RBC), and hematocrit were measured on a HEMAVET® instrument (HV950FS; Drew Scientific Inc.) as described in Borkowska et al, 2014. Experiments were performed twice (each time, n=5).

BM HSPCs = experiment: Total number of BM HSPCs by FACS after SexH administration; assay type: in vivo, mouse; conditions: male and female mice, 10-day administration
Protocol: as §1, §2

Molecule	increase in total number of VSELs/10^6 BMMNCs (BM VSELs)	BrdU incorporation in Sca-1+/Lin-/CD45- VSELs ([1]; ovariectomized female mice)	BrdU incorporation into Sca1+/Lin-/CD45+ HSPCs ([2]; ovariectomized female mice)	increase in total number of VSELs/10^6 BMMNCs (ranking) (BM VSELs)	BrdU incorporation response of Sca-1+/Lin-/CD45- cells (ranking) ([1]; female and male cells)	leucocyte counts [3]	increase in BM HSPCs/10^6 BMMNCs (ranking) (BM HSPCs)	increase in percentage of BrdU+ Sca-1+/Lin-/CD45+ cells (ranking) ([2]; 10-day administration)	BrdU incorporation response of Sca-1+/Lin-/CD45- cells (ranking) ([1]; female cells)
C[C@]12CC[C@@H]3c4ccc(O)cc4CC[C@H]3[C@@H]1CC[C@@H]2O [estrogen, estradiol]	about 2.5 fold	–	–	–	–	–	–	–	–
CC(=O)[C@H]1CC[C@H]2[C@@H]3CCC4=CC(=O)CC[C@]4(C)[C@H]3CC[C@]12C [progesterone]	–	enhanced BrdU incorporation	small increase in BrdU incorporation	–	–	–	–	–	–
C#C[C@]1(O)CC[C@H]2[C@@H]3CCC4=Cc5oncc5C[C@]4(C)[C@H]3CC[C@@]21C [danazol]	about 2.5 fold	–	–	most effective	highest response	statistically significant increase	highest stimulatory effect	highest increases	–
B1	about 2.5 fold	–	–	most effective	–	statistically significant increase	–	–	highest response
